Reference: paper PMC5770468, “Cardiac glycoside/aglycones inhibit HIV-1 gene expression by a mechanism requiring MEK1/2-ERK1/2 signaling” (Scientific Reports, 2018)

Experiments:
HIV-infected PBMCs = assay: Ex vivo therapeutic index (CC50/IC50) in HIV-infected PBMCs; type: cell-based, human; conditions: CC50/IC50, day 14, HIV-infected PBMCs
Text: Without median toxic dose (TD50) and half-maximal effective concentration (EC50) data available to calculate TIs (in vivo) from HIV patients treated with CSs, we determined the following TIs for each cell type treated with a CS (summarized in Supplementary Table S1): in vitro TIs from HeLa rtTA-HIV-ΔMls cells using CC20/IC50 (instead of CC50/IC50), in vitro TIs from 24ST1NLESG cells using CC50/IC50, and ex vivo TIs from HIV-infected PBMCs using CC50/IC50 (at day 14 of culture approximated from available cell viability trends for CC50s of Supplementary Fig. S13 and inferred near maximal IC50s).
Supplementary Figure S13. Estimation of the approximate ex vivo therapeutic indices of several
CSs. Ex vivo TIs were calculated from CC50/IC50 from day 14 of culture of HIV-infected patient PBMCs treated with CSs. CC50s were estimated/extrapolated from data points by their trends (dashed arrows) from XTT assays of cell viability (gray circles) and their inferred near maximal IC50s estimated from results on HIV-1 p24CA (Gag) production (black circles) from Figures 2f-h and some data points published on digoxin [Wong et al. (2013). PLoS Pathog 9(3):e1003241]. […]

HIV-1 Tat (p16/p14) = assay: Immunoblot of HIV-1 Tat (p16/p14) in HeLa rtTA-HIV-ΔMls cells; type: cell-based; conditions: ~IC80 of CS, relative to DMSO (+Dox)
Description: Figure 3 CSs reduce expression of essential HIV-1 structural and regulatory proteins. HeLa rtTA-HIV-ΔMls cells were treated with ~IC80s of CSs (per Methods), 100 nM of RIDK-21 or -27, or DMSO for 4 h prior to Dox induction for 20 h as indicated. Cell extracts were analyzed by immunoblot of (a) HIV-1 structural proteins: Env (gp160/gp120) and Gag (p41/p24), and (b–d) viral regulatory factors: Rev (p19, b) and Tat (p16/p14, c,d). (d) Graph quantitating Tat expression. Results from (a–d) are from n ≥ 3, mean, s.e.m. […] (a and d) Lanes were cropped and assembled from the same blot per box from Supplementary Figure S4a,b and c, respectively.
To monitor HIV-1 gene expression or replication, Gag release into cell culture supernatants were assayed by ELISA using a p24^CA antigen capture assay kit (AIDS & Cancer Virus Program, NCI-Frederick, Frederick, MD USA). […] For analysis of HIV-1 and SR protein expression (and phosphorylation states with calf intestinal alkaline phosphatase treatments), cells were lysed and analyzed by western blot as previously outlined. […] Activation of MAPKs was determined by western blot quantitation and calculation of phospho/total protein levels. […] Stain-Free™ gels were casted and proteins were detected as described in 10% TGX-Stain-Free FastCast Acrylamide Kit from Bio-Rad (#161-0183). […]

What does the source list for C[C@]12CC[C@H](O)C[C@H]1CC[C@@H]1[C@@H]2CC[C@]2(C)[C@@H](C3=CC(=O)OC3)CC[C@]12O [Digitoxigenin]?
better approximate ex vivo TI than FDA-approved counterparts (HIV-infected PBMCs): ≥ 1.5 fold; p16 Tat expression (HIV-1 Tat (p16/p14)): 57 % of control
